# According to publication PMC7587356, “High-Throughput Screening for Inhibitors of the SARS-CoV-2 Protease Using a FRET-Biosensor” (Molecules, 2020):
# Where a name gives a salt, the structure may show the parent alone. Read-outs that look alike come from different tables or passages of the source.
# Molecular target: SARS-CoV-2 3CLpro (Severe acute respiratory syndrome coronavirus 2, UniProt P0DTD1)
# Assay: biochemical
# Assay type: biochemical
# Set-up: Replicate_1 / Replicate_2 / mean / mean (LOPAC_screen_w_protease): unit not given here
# Conditions: for mean (LOPAC screen with protease) / Replicate_1 (LOPAC screen with protease) / Replicate_2 (LOPAC screen with protease): primary screen at 5 µM; for inhibition at 5 µM: 4 h
# [1] = sheet LOPAC_screen_w_protease, mean of two replicates
# [2] = sheet LOPAC_screen_w_protease, replicate 1
# [3] = sheet LOPAC_screen_w_protease, replicate 2
# [4] = sheet LOPAC_screen_w_protease, primary screen with protease, mean of two replicates
# [5] = sheet LOPAC_screen_w_protease, primary screen with protease, replicate 1
# [6] = sheet LOPAC_screen_w_protease, primary screen with protease, replicate 2
# [7] = sheet LOPAC_screen_w_protease, primary screen with protease, 5 µM, mean of two replicates
# [8] = sheet LOPAC_screen_w_protease, primary screen with protease, 5 µM, replicate 1
# [9] = sheet LOPAC_screen_w_protease, primary screen with protease, 5 µM, replicate 2
# [10] = sheet LOPAC_screen_w_protease, primary screen with protease, 5 µM, mean of two replicates, read-out: mean
# [11] = sheet LOPAC_screen_w_protease, primary screen with protease, 5 µM, replicate 1, read-out: Replicate_1
# [12] = sheet LOPAC_screen_w_protease, primary screen with protease, 5 µM, replicate 2, read-out: Replicate_2
# [13] = read-out: Replicate_1 (LOPAC_screen_w_protease)
# [14] = read-out: Replicate_2 (LOPAC_screen_w_protease)
# [15] = sheet LOPAC_screen_w_protease, LOPAC1280 at 5 µM, mean of two replicates, read-out: mean
# [16] = sheet LOPAC_screen_w_protease, LOPAC1280 at 5 µM, replicate 1, read-out: Replicate_1
# [17] = sheet LOPAC_screen_w_protease, LOPAC1280 at 5 µM, replicate 2, read-out: Replicate_2
# [18] = sheet LOPAC_screen_w_protease, LOPAC1280 primary screen at 5 µM, with protease, mean of the two replicates, read-out: mean
# [19] = sheet LOPAC_screen_w_protease, LOPAC1280 primary screen at 5 µM, with protease, replicate 1, read-out: Replicate_1
# [20] = sheet LOPAC_screen_w_protease, LOPAC1280 primary screen at 5 µM, with protease, replicate 2, read-out: Replicate_2
# [21] = LOPAC1280 primary screen with protease, 5 µM compound, replicate 1, read-out: Replicate_1 (LOPAC_screen_w_protease)
# [22] = LOPAC1280 primary screen with protease, 5 µM compound, replicate 2, read-out: Replicate_2 (LOPAC_screen_w_protease)
# [23] = LOPAC1280 primary screen with protease, 5 µM compound, mean of the two replicates
# [24] = LOPAC1280 primary screen with protease, 5 µM compound, mean of two replicates
# [25] = LOPAC1280 primary screen with protease, 5 µM compound, replicate 1
# [26] = LOPAC1280 primary screen with protease, 5 µM compound, replicate 2
# [27] = sheet LOPAC_screen_w_protease, LOPAC1280 primary screen at 5 µM, with protease, replicate 1
# [28] = sheet LOPAC_screen_w_protease, LOPAC1280 primary screen at 5 µM, with protease, replicate 2
# [29] = sheet LOPAC_screen_w_protease, LOPAC1280 primary screen at 5 µM, with protease, mean of the two replicates
structure (smiles),measurement,setting,value
Br.C=CCN1CCc2cccc3c2[C@H]1Cc1ccc(O)c(O)c1-3 [R(-)-N-Allylnorapomorphine hydrobromide],mean (LOPAC screen with protease),[1],97.2039
same,Replicate_1 (LOPAC screen with protease),[2],99.2109
same,Replicate_2 (LOPAC screen with protease),[3],95.1969
CCCN1CCc2cccc3c2[C@H]1Cc1ccc(O)c(O)c1-3.Cl [R(-)-Propylnorapomorphine hydrochloride],mean (LOPAC screen with protease),[1],100.867
same,Replicate_1 (LOPAC screen with protease),[2],101.086
same,Replicate_2 (LOPAC screen with protease),[3],100.647
"COc1ccc2c(c1O)-c1cccc3c1[C@@H](C2)N(C)CC3 [R(−)-apocodeine, reference compound]",inhibition of 3CLpro in the primary screen,5 µM,6%
Br.CCCN(CCC)[C@@H]1CCc2ccc(O)cc2C1 [R-(+)-7-Hydroxy-DPAT hydrobromide],mean,[4],2.2447
same,Replicate_1,[5],2.253
same,Replicate_2,[6],2.237
Br.CCCN(CCC)[C@@H]1CCc2cccc(O)c2C1 [R-(+)-8-Hydroxy-DPAT hydrobromide],mean,[7],-0.6201
same,Replicate_1,[8],2.2019
same,Replicate_2,[9],-3.442
C#CCN[C@H](C)Cc1ccccc1.Cl [R-(-)-Desmethyldeprenyl hydrochloride],Replicate_1 (LOPAC_screen_w_protease),,3.419
same,Replicate_2 (LOPAC_screen_w_protease),,0.5348
same,mean (LOPAC_screen_w_protease),,1.9771
CCCCCC(O)c1cccc(OCc2ccc3ccccc3n2)c1 (stereo not drawn) [REV 5901],inhibition at 5 µM,[10],0.337%
same,inhibition at 5 µM,[11],0.269%
same,inhibition at 5 µM,[12],0.406%
COC1(C2=NCCN2)COc2ccccc2O1.Cl (stereo not drawn) [RX 821002 hydrochloride],mean,[7],0.0583
same,Replicate_1,[8],-1.138
same,Replicate_2,[9],1.255
CNC(=C[N+](=O)[O-])NCCSCc1ccc(CN(C)C)o1 [Ranitidine hydrochloride],inhibition at 5 µM,[13],2.07%
same,inhibition at 5 µM,[14],1.3%
COc1ccccc1OCC(O)CN1CCN(CC(=O)Nc2c(C)cccc2C)CC1 (stereo not drawn) [Ranolazine dihydrochloride],inhibition at 5 µM,[15],0.975%
same,inhibition at 5 µM,[16],1.18%
same,inhibition at 5 µM,[17],0.768%
COC(=O)[C@H]1[C@H]2C[C@H]3c4[nH]c5ccccc5c4CCN3C[C@H]2CC[C@@H]1O [Rauwolscine hydrochloride],inhibition at 5 µM,"sheet LOPAC_screen_w_protease, primary screen with protease, compound at 5 µM, mean of two replicates, read-out: mean",3.1%
same,inhibition at 5 µM,"sheet LOPAC_screen_w_protease, primary screen with protease, compound at 5 µM, replicate 1, read-out: Replicate_1",3.55%
same,inhibition at 5 µM,"sheet LOPAC_screen_w_protease, primary screen with protease, compound at 5 µM, replicate 2, read-out: Replicate_2",2.65%
Nc1c(S(=O)(=O)O)cc(Nc2ccc(Nc3nc(Cl)nc(Nc4cccc(S(=O)(=O)O)c4)n3)c(S(=O)(=O)O)c2)c2c1C(=O)c1ccccc1C2=O [Reactive Blue 2],inhibition at 5 µM,[18],0.827%
same,inhibition at 5 µM,[19],-0.139%
same,inhibition at 5 µM,[20],1.79%
COC(=O)[C@H]1[C@H]2C[C@@H]3c4[nH]c5cc(OC)ccc5c4CCN3C[C@H]2C[C@@H](OC(=O)c2cc(OC)c(OC)c(OC)c2)[C@@H]1OC [Reserpine],inhibition at 5 µM,[13],2.93%
same,inhibition at 5 µM,[14],0.694%
Oc1ccc(/C=C/c2cc(O)cc(O)c2)cc1 [Resveratrol],inhibition at 5 µM,read-out: Replicate_2,-6.92%
CC1=C(/C=C/C(C)=C/C=C/C(C)=C/C(=O)Nc2ccc(O)cc2)C(C)(C)CCC1 [Retinoic acid p-hydroxyanilide],mean,[4],2.295
same,Replicate_1,[5],3.365
same,Replicate_2,[6],1.2239
C1COC(NC(C2CC2)C2CC2)=N1 [Rilmenidine hemifumarate],inhibition at 5 µM,[21],4.65%
same,inhibition at 5 µM,[22],-0.41%
same,mean (LOPAC_screen_w_protease),[23],2.121
Nc1nc2ccc(OC(F)(F)F)cc2s1 [Riluzole],inhibition at 5 µM,[21],2.44%
same,inhibition at 5 µM,[22],0.68%
same,mean (LOPAC_screen_w_protease),[24],1.558
Cc1nc2n(c(=O)c1CCN1CCC(c3noc4cc(F)ccc34)CC1)CCCC2 [Risperidone],inhibition at 5 µM,[15],0.962%
same,inhibition at 5 µM,[16],1.3%
same,inhibition at 5 µM,[17],0.627%
Cc1nc2sccn2c(=O)c1CCN1CCC(=C(c2ccc(F)cc2)c2ccc(F)cc2)CC1 [Ritanserin],inhibition at 5 µM,[21],2.24%
same,inhibition at 5 µM,[22],0.502%
same,mean (LOPAC_screen_w_protease),[24],1.373
CC(NCCc1ccc(O)cc1)C(O)c1ccc(O)cc1 (stereo not drawn) [Ritodrine hydrochloride],inhibition at 5 µM,[10],-0.392%
same,inhibition at 5 µM,[11],-0.659%
same,inhibition at 5 µM,[12],-0.126%
CNc1cc(NS(=O)(=O)c2ccc(N)cc2)nc(NC)n1.Cl.Cl [Ro 04-6790 dihydrochloride],mean,"sheet LOPAC_screen_w_protease, LOPAC1280 at 5 µM, mean of two replicates",0.9819
same,Replicate_1,"sheet LOPAC_screen_w_protease, LOPAC1280 at 5 µM, replicate 1",-0.4861
same,Replicate_2,"sheet LOPAC_screen_w_protease, LOPAC1280 at 5 µM, replicate 2",2.45
Cl.NCCNC(=O)c1ccc(Cl)cc1 [Ro 16-6491 hydrochloride],mean,[7],-0.0598
same,Replicate_1,[8],0.2844
same,Replicate_2,[9],-0.404
CCCCOc1cc(CC2CNC(=O)N2)ccc1OC (stereo not drawn) [Ro 20-1724],mean (LOPAC_screen_w_protease),[23],1.901
same,Replicate_1 (LOPAC_screen_w_protease),[25],0.9131
same,Replicate_2 (LOPAC_screen_w_protease),[26],2.888
O=C(c1cc(O)c(O)c([N+](=O)[O-])c1)c1ccccc1F [Ro 41-0960],mean,"sheet LOPAC_screen_w_protease, LOPAC1280 primary screen at 5 µM, with protease, mean of two replicates",-0.9763
same,Replicate_1,[27],-1.184
same,Replicate_2,[28],-0.7687
Cl.NCCNC(=O)c1ncsc1-c1cccc(F)c1 [Ro 41-1049 hydrochloride],mean,[7],-0.1611
same,Replicate_1,[8],1.896
same,Replicate_2,[9],-2.218
COc1ccc(C2CNC(=O)C2)cc1OC1CCCC1 (stereo not drawn) [Rolipram],inhibition at 5 µM,[10],-0.575%
same,inhibition at 5 µM,[11],-0.0105%
same,inhibition at 5 µM,[12],-1.14%
CC[C@H](CO)Nc1nc(NCc2ccccc2)c2ncn(C(C)C)c2n1 [Roscovitine],mean (LOPAC_screen_w_protease),,1.3343
same,inhibition at 5 µM,[13],3.12%
same,inhibition at 5 µM,[14],-0.448%
C=C(C)[C@H]1Cc2c(ccc3c2O[C@@H]2COc4cc(OC)c(OC)cc4[C@@H]2C3=O)O1 [Rotenone],inhibition at 5 µM,[18],0.71%
same,inhibition at 5 µM,[19],2.43%
same,inhibition at 5 µM,[20],-1.01%
CC(=O)c1c(O)c(C)c(O)c(Cc2c(O)c3c(c(C(=O)/C=C/c4ccccc4)c2O)OC(C)(C)C=C3)c1O [Rottlerin],inhibition at 5 µM,read-out: Replicate_1,4.21%
same,inhibition at 5 µM,read-out: Replicate_2,5.11%
same,inhibition at 5 µM,read-out: mean,4.66%
CCN(CC)CC.Nc1ncnc2c1ncn2C1OC2COP(O)(=S)O[C@@H]2[C@@H]1O (stereo partly drawn) [Rp-cAMPS triethylamine],Replicate_1,,2.931
same,Replicate_2,,3.042
same,mean,,2.9867
O=c1c2ccccc2nc2n1CCc1c-2[nH]c2ccccc12 [Rutaecarpine],inhibition at 5 µM,[18],0.598%
same,inhibition at 5 µM,[19],1.54%
same,inhibition at 5 µM,[20],-0.348%
N.N.N.N.N.N.N.N.N.N.N.N.N.N.[Cl-].[Cl-].[Cl-].[Cl-].[Cl-].[Cl-].[O-2].[O-2].[Ru+3].[Ru+3].[Ru+4] [Ruthenium red],mean (LOPAC_screen_w_protease),[23],1.824
same,Replicate_1 (LOPAC_screen_w_protease),[25],2.607
same,Replicate_2 (LOPAC_screen_w_protease),[26],1.042
CC(C)Cc1ccc([C@H](C)C(=O)O)cc1 [S(+)-Ibuprofen],mean (LOPAC_screen_w_protease),[24],1.7003
same,Replicate_1 (LOPAC_screen_w_protease),[25],1.122
same,Replicate_2 (LOPAC_screen_w_protease),[26],2.279
"CCCN1CCO[C@@H]2c3cc(O)ccc3OC[C@H]21.Cl [S(+)-PD 128,907 hydrochloride]",mean,[29],0.4405
same,Replicate_1,[27],0.5719
same,Replicate_2,[28],0.3091
CCN1CCC[C@H]1CNC(=O)c1c(OC)ccc(I)c1O [S(-)-IBZM],mean,[4],2.422
same,Replicate_1,[5],3.86
same,Replicate_2,[6],0.9843
CC(C)NCC(O)COc1cccc2[nH]ccc12 (stereo not drawn) [S(-)-Pindolol],mean (LOPAC_screen_w_protease),[23],1.809
same,Replicate_1 (LOPAC_screen_w_protease),[25],1.519
same,Replicate_2 (LOPAC_screen_w_protease),[26],2.1
same,mean,[7],0.4162
same,Replicate_1,[8],1.799
same,Replicate_2,[9],-0.9667
CC(C)(C)NC[C@H](O)COc1nsnc1N1CCOCC1.O=C(O)/C=C\C(=O)O [S(-)-Timolol maleate],mean,[7],0.01613
same,Replicate_1,[8],1.756
same,Replicate_2,[9],-1.724
N[C@@H](Cn1ccc(=O)[nH]c1=O)C(=O)O [S(-)-Willardiine],mean,[29],0.8515
same,Replicate_1,[27],0.8129
same,Replicate_2,[28],0.89
